Measured values: patent publication US20240122917A1, “USE OF COMPOSITION CONTAINING CILOSTAZOL IN CEREBROVASCULAR DISEASES” (NEURODAWN PHARMACEUTICAL CO., LTD., priority 2021, published 2024)

Tests used:
[1] = test system: rats with focal cerebral ischemia-reperfusion injury (MCAO rats); assay: Rat focal cerebral ischemia-reperfusion model (internal carotid artery suture method), area of cerebral infarction by TTC staining; type: in vivo, Sprague-Dawley (SD) rats; conditions: for Area of cerebral infarction (%): 24 hours after cerebral ischemia, mean ± SD; for area of cerebral infarction in MCAO rats (in words) / neurological deficits in MCAO rats: cilostazol at 1-15 mg/kg or edaravone at 1.67-8.33 mg/kg in the tail vein
Procedure: The experimental animals were divided into 4 groups, cilostazol group (1 mg/kg), edaravone group (5 mg/kg), cilostazol and edaravone composition group (6 mg/kg, cilostazol:edaravone=1:5, cilostazol 1 mg/kg+edaravone 5 mg/kg) and model group. After the cerebral ischemia model was established, the animals were assigned to each group in a single-blind manner with equal probability. After reperfusion, the animals were immediately administered intravenously with the drugs once. The animals in the model group were administered with an equal volume of normal saline. The animals were sacrificed 24 hours after cerebral ischemia, and their brains were taken out, stained, and photographed for determining the area of cerebral infarction.
The rat focal cerebral ischemia-reperfusion model was established by internal carotid artery suture method. The limbs (hind limbs above the knee joint and forelimbs below the wrist joint) and head of an anesthetized rat were tightened with rubber bands. The animal was fixed on an operating table in supine position, and was shaved with an animal shaver from the head to the chest, and the skin was disinfected with alcohol. The neck of the rat was cut at the midline, and the subcutaneous tissue was bluntly separated. The thin layer of fascia on the surface of the anterior triangle of the neck was separated, the lower side-lower edge of the clavicular hyoid muscle was pulled up, and the longitudinally pulsating artery parallel to this muscle can be seen. The arterial shell was opened, and the bifurcation of the right carotid artery was exposed. The right common carotid artery, external carotid artery and internal carotid artery were separated. The vagus nerve was gently stripped, and the external carotid artery was ligated and cut. The proximal end of the common carotid artery was clamped. An incision was made at the distal end from the ligature of the external carotid artery, and was inserted with a suture line, which was passed through the bifurcation of the common carotid artery into the internal carotid artery, and then was inserted slowly until reaching slight resistance (approximately 20 mm from the bifurcation), so as to block all blood supply to the middle cerebral artery. The suture line was slightly fixed below the incision of the external carotid artery with silk thread. The silk thread clamping the proximal end of the common carotid artery was loosened. A gauze soaked in sterile saline was covered on the wound, and the rat was placed on a heat preservation pad to keep warm. 2.0 h after cerebral ischemia on the right side, the suture line was pulled out gently to restore the blood supply for reperfusion. The external carotid artery was ligated with silk thread fixing the suture line. The skin was stitched, and disinfected. The rats were placed in clean feed, and their general condition and respiration were observed until they woke up from anesthesia. The rats were provided with food and water, and commonly reared.
The animals were subjected to evaluation of neurological deficit symptoms and then sacrificed with CO2. The brain was taken out by cutting off head. The olfactory bulb, cerebellum and lower brainstem were removed. The blood on the surface of the brain was washed with normal saline, and the residual water on the surface was removed. The brain was placed at −20° C. for 20 min, then taken out, immediately cut to a coronal section vertically downward at the crossing plane of the line of sight, and sliced backward every 2 mm. The brain slices were incubated in 1% TTC staining solution (at 37° C. for 30 min). The normal brain tissue was stained into dark red, and the ischemic brain tissue was stained into pale white. After being washed with normal saline, the brain slices were quickly arranged in a row from front to back, removed off the residual water on the surface, and photographed. […]

[2] = test system: mice with focal cerebral ischemia-reperfusion injury (MCAO mice); assay: Mouse focal cerebral ischemia-reperfusion model (internal carotid artery suture method), area of cerebral infarction by TTC staining; type: in vivo, C57BL/6J mice; conditions: cilostazol at 3.33-16.67 mg/kg or edaravone at 3.33-16.67 mg/kg in the tail vein
Procedure: The animals were subjected to evaluation of neurological deficit symptoms and then sacrificed with CO2. The brain was taken out by cutting off head. The olfactory bulb, cerebellum and lower brainstem were removed. The blood on the surface of the brain was washed with normal saline, and the residual water on the surface was removed. The brain was placed at −20° C. for 20 min, then taken out, immediately cut to a coronal section vertically downward at the crossing plane of the line of sight, and sliced backward every 2 mm. The brain slices were incubated in 1% TTC staining solution (at 37° C. for 30 min). The normal brain tissue was stained into dark red, and the ischemic brain tissue was stained into pale white. After being washed with normal saline, the brain slices were quickly arranged in a row from front to back, removed off the residual water on the surface, and photographed.
Calculation of area of cerebral infarction: The photos were processed by Image J software, and the corresponding area of left brain and non-infarction area of right brain were calculated according to the formula, so that the percentage of the area of infarction was calculated.
The experimental animals were divided into 4 groups, a model group and three groups of compositions of cilostazol/edaravone (respectively a group of cilostazol 3.33 mg/kg+edaravone 16.67 mg/kg in 1:5; a group of cilostazol 5.71 mg/kg+edaravone 14.29 mg/kg in 1:2.5; a group of cilostazol 10 mg/kg+edaravone 10 mg/kg in 1:1, and each composition was administered at a total amount of 20 mg/kg). After the cerebral ischemia model was established, the animals were assigned to each group in a single-blind manner with equal probability. After reperfusion, the animals were immediately administered intravenously with the drugs once. The animals in the model group were administered with an equal volume of normal saline. The animals were sacrificed 24 hours after cerebral ischemia, and their brains were taken out, stained, and photographed for determining the area of cerebral infarction.
Establishment of focal cerebral ischemia-reperfusion model: The mouse focal cerebral ischemia-reperfusion model was established by internal carotid artery suture method. An anesthetized mouse was fixed on an operating table in a supine position. The neck of the mice was cut at the midline, and the subcutaneous tissue was bluntly separated. The right common carotid artery, external carotid artery, and internal carotid artery were separated. […]

[3] = test system: rats with focal cerebral ischemia-reperfusion injury (MCAO rats); assay: Rat focal cerebral ischemia-reperfusion model (internal carotid artery suture method), area of cerebral infarction by TTC staining; type: in vivo, Sprague-Dawley (SD) rats; conditions: 24 hours after cerebral ischemia, mean ± SD
[4] = test system: plasma protein; conditions: background statement; cited from earlier work

Compound | Area of cerebral infarction (%) ([1]; Example 1, edaravone 5 mg/kg i.v. once immediately after reperfusion, model group 40.35 ± 8.24) | Area of cerebral infarction (%) ([1]; Example 2, edaravone 5 mg/kg i.v. once immediately after reperfusion, model group 40.50 ± 8.51) | area of cerebral infarction in MCAO rats (in words) [1] | neurological deficits in MCAO rats [1] | area of cerebral infarction in MCAO mice (in words) [2] | neurological deficits in MCAO mice [2] | Area of cerebral infarction (%) ([3]; Example 3, edaravone 3 mg/kg i.v. once immediately after reperfusion, model group 39.41 ± 9.56) | Area of cerebral infarction (%) ([1]; Example 1, cilostazol 1 mg/kg i.v. once immediately after reperfusion, 2.0 h ischemia, model group 40.35 ± 8.24) | Area of cerebral infarction (%) ([3]; Example 2, cilostazol 5 mg/kg i.v. once immediately after reperfusion, model group 40.50 ± 8.51) | Area of cerebral infarction (%) ([3]; Example 3, cilostazol 15 mg/kg i.v. once immediately after reperfusion, model group 39.41 ± 9.56) | binding rate to plasma protein [4]
CC1=NN(c2ccccc2)C(=O)C1 [Edaravone, 3-methyl-1-phenyl-2-pyrazolin-5-one] | 29.35 ± 10.45 % | 29.49 ± 9.06 % | reduce the area of cerebral infarction | significantly ameliorate the neurological deficits | reduce the area of cerebral infarction | significantly ameliorate the neurological deficits | 31.24 ± 6.83 % | – | – | – | –
O=C1CCc2cc(OCCCCc3nnnn3C3CCCCC3)ccc2N1 [Cilostazol] | – | – | reduce the area of cerebral infarction | significantly ameliorate the neurological deficits | reduce the area of cerebral infarction | significantly ameliorate the neurological deficits | – | 34.24 ± 7.25% | 32.59 ± 7.15 % | 27.26 ± 9.74 % | about 95%
